One data set deals with Bcr/Abl fusion protein (Homo sapiens, UniProt P00519). As to the kind of experiment: Inhibition of BRC/ABL1 (unknown origin) after 40 mins by ADP-Glo assay. Type of data set: protein assay. (In ADP-Glo the light output rises with the ADP produced.)
A short description of data set [1]: Cytotoxicity against human K562 cells assessed as reduction in cell viability after 96 hrs by MTT assay. As to conditions: K562, 96 h. A general note: Tetrazolium dyes change colour on reduction, which living cells bring about.
The nature of data set [2]: Cytotoxicity against human A549 cells assessed as reduction in cell viability after 96 hrs by MTT assay. As to conditions: A549, 96 h.
Data set [3] can be described thus: Cytotoxicity against human L02 cells assessed as reduction in cell viability after 96 hrs by MTT assay. The data set is classed as toxicity, cell-based.
Data set [4] in a line: Cytotoxicity against human HCT116 cells assessed as reduction in cell viability after 96 hrs by MTT assay. The settings on record: HCT-116, 96 h.
Data set [5] is described as follows: Cytotoxicity against human U937 cells assessed as reduction in cell viability after 96 hrs by MTT assay. As to conditions: U-937, 96 h.

The values that follow come from ChEMBL document CHEMBL3853293, “Part-1: Design, synthesis and biological evaluation of novel bromo-pyrimidine analogs as tyrosine kinase inhibitors” (Eur J Med Chem, 2016).

Structures are written as SMILES. pIC50: −log10 of the molar value.

Chain of Bcr/Abl fusion protein (P00519 whole entry, the tested form may be a part): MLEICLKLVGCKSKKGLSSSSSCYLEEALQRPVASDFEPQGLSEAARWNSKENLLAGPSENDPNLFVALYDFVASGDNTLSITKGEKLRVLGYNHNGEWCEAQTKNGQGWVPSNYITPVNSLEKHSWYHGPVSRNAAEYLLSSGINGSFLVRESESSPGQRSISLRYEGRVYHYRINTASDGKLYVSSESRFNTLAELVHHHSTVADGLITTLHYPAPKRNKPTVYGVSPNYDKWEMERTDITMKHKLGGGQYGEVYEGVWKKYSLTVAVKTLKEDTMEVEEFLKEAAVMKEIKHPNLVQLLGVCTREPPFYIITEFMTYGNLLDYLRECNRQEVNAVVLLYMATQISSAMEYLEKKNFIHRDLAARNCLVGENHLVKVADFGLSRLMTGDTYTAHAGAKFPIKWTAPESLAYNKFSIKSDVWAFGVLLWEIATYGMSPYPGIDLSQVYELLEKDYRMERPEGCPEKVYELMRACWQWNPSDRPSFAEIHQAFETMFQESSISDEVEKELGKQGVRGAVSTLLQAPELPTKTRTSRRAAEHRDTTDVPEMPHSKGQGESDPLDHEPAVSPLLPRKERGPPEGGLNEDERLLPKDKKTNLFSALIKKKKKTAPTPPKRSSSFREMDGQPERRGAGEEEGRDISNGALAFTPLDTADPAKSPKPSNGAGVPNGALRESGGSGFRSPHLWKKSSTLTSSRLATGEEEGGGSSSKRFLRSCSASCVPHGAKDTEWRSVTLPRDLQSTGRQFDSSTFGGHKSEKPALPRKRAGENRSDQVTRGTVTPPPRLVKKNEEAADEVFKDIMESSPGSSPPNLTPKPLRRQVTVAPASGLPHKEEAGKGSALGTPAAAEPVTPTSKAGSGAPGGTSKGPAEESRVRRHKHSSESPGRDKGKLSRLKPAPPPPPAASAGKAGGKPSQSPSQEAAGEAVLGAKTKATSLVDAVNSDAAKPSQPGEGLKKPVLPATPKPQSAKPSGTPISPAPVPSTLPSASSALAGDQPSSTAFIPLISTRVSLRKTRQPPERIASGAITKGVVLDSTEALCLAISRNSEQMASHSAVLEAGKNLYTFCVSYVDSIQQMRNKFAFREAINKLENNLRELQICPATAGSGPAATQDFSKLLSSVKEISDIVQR
Chain of Bcr/Abl fusion protein (P11274 whole entry, further chain, the tested form may be a part): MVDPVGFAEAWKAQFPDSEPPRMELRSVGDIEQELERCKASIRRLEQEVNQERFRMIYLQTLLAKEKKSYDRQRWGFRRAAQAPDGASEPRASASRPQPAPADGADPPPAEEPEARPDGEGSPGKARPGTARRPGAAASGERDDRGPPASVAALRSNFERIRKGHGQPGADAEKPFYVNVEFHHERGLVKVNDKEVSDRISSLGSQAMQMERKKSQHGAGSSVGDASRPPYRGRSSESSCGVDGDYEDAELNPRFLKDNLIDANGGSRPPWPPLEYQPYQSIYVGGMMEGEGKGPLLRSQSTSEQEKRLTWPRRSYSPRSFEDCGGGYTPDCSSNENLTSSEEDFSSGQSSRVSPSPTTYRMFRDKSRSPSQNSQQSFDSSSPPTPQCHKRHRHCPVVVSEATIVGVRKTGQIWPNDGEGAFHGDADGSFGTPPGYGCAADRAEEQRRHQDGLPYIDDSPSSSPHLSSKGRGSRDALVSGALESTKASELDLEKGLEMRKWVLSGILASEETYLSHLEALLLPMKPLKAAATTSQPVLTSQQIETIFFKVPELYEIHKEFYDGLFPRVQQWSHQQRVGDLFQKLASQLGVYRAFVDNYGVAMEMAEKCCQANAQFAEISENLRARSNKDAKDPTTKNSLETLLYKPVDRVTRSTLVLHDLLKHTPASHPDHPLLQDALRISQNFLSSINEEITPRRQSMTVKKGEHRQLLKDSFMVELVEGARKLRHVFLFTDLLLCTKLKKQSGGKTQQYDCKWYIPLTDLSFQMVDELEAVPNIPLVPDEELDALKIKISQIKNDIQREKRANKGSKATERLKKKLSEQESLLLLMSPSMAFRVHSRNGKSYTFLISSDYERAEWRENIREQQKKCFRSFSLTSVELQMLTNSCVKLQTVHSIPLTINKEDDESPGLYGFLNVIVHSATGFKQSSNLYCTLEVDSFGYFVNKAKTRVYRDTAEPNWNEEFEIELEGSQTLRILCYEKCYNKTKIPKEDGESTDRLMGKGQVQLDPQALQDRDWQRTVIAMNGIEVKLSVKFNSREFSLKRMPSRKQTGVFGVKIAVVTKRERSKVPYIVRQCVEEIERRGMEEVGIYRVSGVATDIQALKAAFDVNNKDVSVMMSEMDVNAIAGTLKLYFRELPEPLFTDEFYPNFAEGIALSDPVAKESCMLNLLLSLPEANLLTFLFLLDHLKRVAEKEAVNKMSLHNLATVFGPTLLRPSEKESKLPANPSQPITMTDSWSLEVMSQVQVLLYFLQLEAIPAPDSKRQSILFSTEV

On Bcr/Abl fusion protein, `Cc1ccc(S(=O)(=O)N2CCN(c3nc(Cl)ncc3Br)CC2)cc1` gave a pIC50 of 4.24.

Consider `O=S(=O)(C1CC1)N1CCN(c2nc(N3CCOCC3)ncc2Br)CC1`, for which the pIC50 against Bcr/Abl fusion protein is 6.66; in data set [2], 4.92; in data set [4] it was 5.09; in data set [5], 4.92. Besides, the half-maximal inhibitory concentration (IC50) in data set [1] was found to be 9.12 µg/mL. The IC50 at 96 h in data set [3] is > 40 µM.

Consider `O=C(c1ccc(F)cc1)N1CCN(c2nc(Cl)ncc2Br)CC1`, for which the negative-log IC50 (pIC50) against Bcr/Abl fusion protein is 7.72; in data set [4] it was 5.09. Further, the concentration for half-maximal inhibition (IC50) was determined as 8.82 µg/mL in data set [1], 7.34 µg/mL in data set [2] and 9.12 µg/mL in data set [5]. Besides, the concentration for half-maximal inhibition (IC50) at 96 h in data set [3] was > 40 µM.

For the molecule `O=C(c1ccc(F)cc1)N1CCN(c2nc(N3CCOCC3)ncc2Br)CC1`, the results for the pIC50 (at Bcr/Abl fusion protein; in data set [2]) were 7.62 and 5.06, respectively. Further, the IC50 was 9.45 µg/mL in data set [1], 4.56 µg/mL in data set [4] and 9.89 µg/mL in data set [5]. Besides, in data set [3], the concentration for half-maximal inhibition (IC50) at 96 h was > 40 µM.

Turning to `Cc1noc(C)c1S(=O)(=O)N1CCN(c2nc(N3CCOCC3)ncc2Br)CC1`, the negative logarithm of the IC50 (pIC50) at Bcr/Abl fusion protein is < 3.30; in data set [2] it was 4.98; in data set [4], 5.08; in data set [5] it was 4.93. Moreover, the IC50 in data set [1] was 9.45 µg/mL. For the same molecule, in data set [3], the 50% inhibitory concentration (IC50) at 96 h is > 40 µM.

For the molecule `O=S(=O)(c1ccc(-c2ccccc2)cc1)N1CCN(c2nc(N3CCOCC3)ncc2Br)CC1`, the pIC50 on Bcr/Abl fusion protein was 6.49; in data set [2], 5.00; in data set [4], 5.04; in data set [5], 4.95. The 50% inhibitory concentration (IC50) in data set [1] came out at 9.32 µg/mL. Also, the IC50 at 96 h in data set [3] is > 40 µM.

On to `CS(=O)(=O)N1CCN(c2nc(N3CCOCC3)ncc2Br)CC1`, for which the pIC50 in data set [1] was 4.92; in data set [2] it was 5.01; in data set [4], 5.09; in data set [5], 4.94. The IC50 at 96 h in data set [3] was > 40 µM.

For the molecule `O=S(=O)(c1ccc(F)cc1)N1CCN(c2nc(Cl)ncc2Br)CC1`, the negative logarithm of the IC50 (pIC50) against Bcr/Abl fusion protein is 3.91.

As for `O=C(c1cc(I)ccc1Cl)N1CCN(c2nc(Cl)ncc2Br)CC1`, the pIC50 is 4.79 against Bcr/Abl fusion protein, 4.91 in data set [2], 5.19 in data set [4] and 4.91 in data set [5]. In data set [1], the IC50 was determined as 8.67 µg/mL. Further, the 50% inhibitory concentration (IC50) at 96 h in data set [3] was > 40 µM.

For `Cc1ccc(S(=O)(=O)N2CCN(c3nc(N4CCOCC4)ncc3Br)CC2)cc1`, the pIC50 is 5.70 on Bcr/Abl fusion protein, 5.03 in data set [2], 5.12 in data set [4] and 4.98 in data set [5]. For the same molecule, the IC50 in data set [1] came to 10.3 µg/mL. In addition, in data set [3], the IC50 at 96 h was > 40 µM.

For `O=C(c1cc(Cl)ccc1Cl)N1CCN(c2nc(Cl)ncc2Br)CC1`, the negative-log IC50 (pIC50) on Bcr/Abl fusion protein was 5.64; in data set [2], 4.98; in data set [4], 5.08; in data set [5], 4.95. Besides, the half-maximal inhibitory concentration (IC50) in data set [1] is 9.22 µg/mL. Further, the IC50 at 96 h in data set [3] is > 40 µM.

Consider `N#Cc1ccc(S(=O)(=O)N2CCN(c3nc(N4CCOCC4)ncc3Br)CC2)cc1`, for which the pIC50 on Bcr/Abl fusion protein was < 3.30; in data set [2] it was 4.91; in data set [4] it was 5.08; in data set [5], 4.91. The IC50 in data set [1] turned out to be 10.5 µg/mL. The IC50 at 96 h in data set [3] was > 40 µM.

Molecule `CS(=O)(=O)N1CCN(c2nc(Cl)ncc2Br)CC1` had a pIC50 against Bcr/Abl fusion protein of 6.59.

In the case of `O=C(c1ccc(Cl)cc1[N+](=O)[O-])N1CCN(c2nc(Cl)ncc2Br)CC1`, the pIC50 at Bcr/Abl fusion protein was 5.59; in data set [2], 4.92; in data set [4] it was 5.13; in data set [5], 4.84. In addition, the concentration for half-maximal inhibition (IC50) in data set [1] is 10.2 µg/mL. Also, the IC50 at 96 h in data set [3] is > 40 µM.

Turning to `O=[N+]([O-])c1cc(C(F)(F)F)ccc1S(=O)(=O)N1CCN(c2nc(N3CCOCC3)ncc2Br)CC1`, on Bcr/Abl fusion protein, the pIC50 was 7.69. The IC50 in data set [1] is 9.65 µg/mL; in data set [2], 6.65 µg/mL; in data set [4] it was 4.02 µg/mL; in data set [5] it was 7.14 µg/mL. The half-maximal inhibitory concentration (IC50) at 96 h in data set [3] is > 40 µM.

In turn, `O=S(=O)(c1ccc(C(F)(F)F)cc1)N1CCN(c2nc(N3CCOCC3)ncc2Br)CC1` gave a pIC50 at Bcr/Abl fusion protein of 7.72. The IC50 in data set [1] is 9.95 µg/mL; in data set [2] it was 6.25 µg/mL; in data set [4], 4.32 µg/mL; in data set [5], 7.54 µg/mL. Moreover, the IC50 at 96 h in data set [3] was > 40 µM.

With `O=C(c1c(F)cccc1F)N1CCN(c2nc(Cl)ncc2Br)CC1`, the negative-log IC50 (pIC50) at Bcr/Abl fusion protein is 5.58; in data set [2], 4.90; in data set [5], 4.91. The IC50 in data set [1] was 10.2 µg/mL; in data set [4] it was 4.97 µg/mL. In addition, the IC50 at 96 h in data set [3] is > 40 µM.

`O=S(=O)(c1ccc2ccccc2c1)N1CCN(c2nc(N3CCOCC3)ncc2Br)CC1`: the negative-log IC50 (pIC50) on Bcr/Abl fusion protein is 6.36; in data set [4], 5.02; in data set [5], 4.82. Besides, the concentration for half-maximal inhibition (IC50) in data set [1] is 10.3 µg/mL; in data set [2], 8.23 µg/mL. The IC50 at 96 h in data set [3] was > 40 µM.

As for `COC(=O)NC(C(=O)N1CCN(c2nc(Cl)ncc2Br)CC1)C(C)C` (stereo not drawn), on Bcr/Abl fusion protein, the negative-log IC50 (pIC50) was 6.41.

As for `Cc1ccc(S(=O)(=O)N2CCN(c3nc(N4CCOCC4)ncc3Br)CC2)c(C)c1`, the negative logarithm of the IC50 (pIC50) at Bcr/Abl fusion protein is 5.77; in data set [2] it was 4.95; in data set [4], 5.07; in data set [5], 4.89. The IC50 in data set [1] is 9.09 µg/mL. In addition, the concentration for half-maximal inhibition (IC50) at 96 h in data set [3] is > 40 µM.

As to `O=S(=O)(c1ccc(F)cc1)N1CCN(c2nc(N3CCOCC3)ncc2Br)CC1`, the pIC50 on Bcr/Abl fusion protein is 5.34; in data set [2] it was 5.03; in data set [4], 5.09; in data set [5], 4.95. Besides, the 50% inhibitory concentration (IC50) in data set [1] was found to be 9.32 µg/mL. In addition, in data set [3], the half-maximal inhibitory concentration (IC50) at 96 h was > 40 µM.

Regarding `O=S(=O)(c1cc(C(F)(F)F)cc(C(F)(F)F)c1)N1CCN(c2nc(Cl)ncc2Br)CC1`, the negative-log IC50 (pIC50) on Bcr/Abl fusion protein is 5.65.

With `CC(C)(C)c1ccc(S(=O)(=O)N2CCN(c3nc(N4CCOCC4)ncc3Br)CC2)cc1`, the negative logarithm of the IC50 (pIC50) is 5.94 against Bcr/Abl fusion protein, 4.91 in data set [2], 5.06 in data set [4] and 4.89 in data set [5]. In addition, in data set [1], the IC50 was determined as 9.09 µg/mL. For the same molecule, the concentration for half-maximal inhibition (IC50) at 96 h in data set [3] was > 40 µM.

At Bcr/Abl fusion protein, `O=[N+]([O-])c1cc(C(F)(F)F)ccc1S(=O)(=O)N1CCN(c2nc(Cl)ncc2Br)CC1` had a pIC50 of 7.65.

Consider `O=C(c1cc(Cl)c(Cl)c(Cl)n1)N1CCN(c2nc(Cl)ncc2Br)CC1`, for which the negative-log IC50 (pIC50) at Bcr/Abl fusion protein is 5.84.

The molecule `O=C(c1ccc(C(F)(F)F)cc1)N1CCN(c2nc(Cl)ncc2Br)CC1` gave a pIC50 on Bcr/Abl fusion protein of 7.72. Further, the 50% inhibitory concentration (IC50) in data set [1] stood at 10.3 µg/mL; in data set [2] it was 8.23 µg/mL; in data set [4], 4.92 µg/mL; in data set [5] it was 7.12 µg/mL. In addition, the half-maximal inhibitory concentration (IC50) at 96 h in data set [3] was > 40 µM.

Consider `O=S(=O)(c1ccc(-c2ccccc2)cc1)N1CCN(c2nc(Cl)ncc2Br)CC1`, for which, on Bcr/Abl fusion protein, the pIC50 is 6.19.

`Cc1noc(C)c1S(=O)(=O)N1CCN(c2nc(Cl)ncc2Br)CC1` showed a pIC50 against Bcr/Abl fusion protein of 6.25.

In the case of `O=S(=O)(c1cc(Cl)sc1Cl)N1CCN(c2nc(N3CCOCC3)ncc2Br)CC1`, the pIC50 is < 3.30 against Bcr/Abl fusion protein, 5.02 in data set [2], 5.03 in data set [4] and 4.87 in data set [5]. In addition, the IC50 in data set [1] was 10.1 µg/mL. In addition, the 50% inhibitory concentration (IC50) at 96 h in data set [3] is > 40 µM.

On to `O=C(c1ccc(Cl)cc1[N+](=O)[O-])N1CCN(c2nc(N3CCOCC3)ncc2Br)CC1`, for which the negative logarithm of the IC50 (pIC50) on Bcr/Abl fusion protein is < 3.30; in data set [1], 4.88; in data set [2], 5.01; in data set [4], 5.19; in data set [5], 4.88. In data set [3], the 50% inhibitory concentration (IC50) at 96 h was > 40 µM.

As for `O=S(=O)(C1CC1)N1CCN(c2nc(Cl)ncc2Br)CC1`, the negative-log IC50 (pIC50) against Bcr/Abl fusion protein is < 3.30.

As for `O=C(c1c(F)cccc1F)N1CCN(c2nc(N3CCOCC3)ncc2Br)CC1`, the results for the negative logarithm of the IC50 (pIC50) (on Bcr/Abl fusion protein; in data set [4]; in data set [5]) were 6.05, 5.25 and 4.88, respectively. Besides, the IC50 amounted to 11.2 µg/mL in data set [1] and 7.17 µg/mL in data set [2]. In addition, the concentration for half-maximal inhibition (IC50) at 96 h in data set [3] was > 40 µM.

Turning to `O=C(c1ccc(C(F)(F)F)cc1)N1CCN(c2nc(N3CCOCC3)ncc2Br)CC1`, the negative-log IC50 (pIC50) against Bcr/Abl fusion protein was 7.62. The half-maximal inhibitory concentration (IC50) turned out to be 9.17 µg/mL in data set [1], 6.44 µg/mL in data set [2], 4.45 µg/mL in data set [4] and 9.88 µg/mL in data set [5]. Besides, in data set [3], the IC50 at 96 h is > 40 µM.

On to `CCCS(=O)(=O)N1CCN(c2nc(Cl)ncc2Br)CC1`, for which the negative logarithm of the IC50 (pIC50) against Bcr/Abl fusion protein is < 3.30.

With `Cc1nc(Nc2ncc(C(=O)Nc3c(C)cccc3Cl)s2)cc(N2CCN(CCO)CC2)n1` [DASATINIB], the pIC50 in data set [1] is 4.92; in data set [2] it was 5.08; in data set [4], 5.28; in data set [5] it was 4.99. Also, in data set [3], the IC50 at 96 h was > 40 µM.

Usually pIC50 stands for the IC50 on a negative log10 scale, so that one unit is a factor of ten. As a reminder, the IC50 is the concentration needed to halve the response being measured.
